Results published in US4957911A, “Benzazecine derivatives for cognitive and memory functions” (Hoffmann-La Roche Inc., priority 1986, dated 1990).

Legend:
[1] = Acute toxicity, single oral administration to mice (LD50); settings: mouse, in vivo
Excerpt: Moreover, the Table contains data for the acute toxicity (LD50 in mg/kg in the case of single oral administration to mice).

[2] = system: rats; assay: Passive avoidance in Skinner box: reversal of scopolamine-induced blocking of short-time memory; assay type: in vivo, rat; settings: scopolamine 0.3 mg/kg i.p. and distilled water p.o.
Excerpt: The test apparatus is a "Skinner box" with an electrifiable grid floor (30×40 cm) and a grey plastic platform (15×15×0.8 cm) in the front right corner. Untrained male rats (100-120 g) are placed individually on the platform. As soon as they climb down on to the grid floor they receive a mild electric foot-shock (0.8 mA). The normal reaction of untrained rats is to climb back on to the platform. The foot-shock procedure must be repeated three to five times for each animal, after which the rats have acquired a "passive avoidance response", that is, they no longer attempt to descend from the platform to the grid floor.
Immediately thereafter three groups, each comprising 30 animals, are set up. The first group receives an injection (i.p.) of 0.3 mg/kg of scopolamine as well as distilled water (2 ml/kg p.o.). The second group receives an injection (i.p.) of 0.3 mg/kg of scopolamine and an oral dosage of the test substance. The third group receives only distilled water (p.o.).
Two hours later, each rat is placed once on the platform in the "Skinner box". […] The statistical significance of the difference between the results obtained in the first and in the second groups is determined by means of the Chi-Square test.
70-75% of the animals treated only with distilled water (p.o.) still remember 2-4 hours after learning the "passive avoidance response" that they should remain on the platform. […]

Row | Compound | LD50 [1] [mg/kg] | animals with retrograde effect on the short-time memory [2] | duration of retrograde effect on the short-time memory [2] [h]
1 | CC(=O)N1CCCC(=O)c2c(Cl)cc(Cl)cc2CCC1=O [I Cl H Cl H COCH3, 4-acetyl-9,11-dichloro-1,2,4,5,6,7-hexahydro-4-benzazecine-3,8-dione] | > 5000 |  | 
2 | CC(=O)N1CCCC(=O)c2ccc(Cl)cc2CCC1=O [I H H Cl H COCH3, 4-acetyl-11-chloro-1,2,4,5,6,7-hexahydro-4-benzazecine-3,8-dione] | > 5000 |  | 
3 | CN1[C@@H]2C[C@@H](OC(=O)[C@H](CO)c3ccccc3)C[C@H]1[C@@H]1O[C@@H]12 [scopolamine] |  | 85-92% | 3 to 4
4 | CC(=O)N1CCCC2=C1CCc1cc(Cl)ccc12 [II H H Cl H COCH3, 4-acetyl-8-chloro-1,2,3,4,5,6-hexahydrobenzo[f]quinoline] | 2500 to 5000 |  | 
5 | CC(=O)N1CCCC(=O)c2ccc(F)cc2CCC1=O [I H H F H COCH3, 4-acetyl-11-fluoro-1,2,4,5,6,7-hexahydro-4-benzazecine-3,8-dione] | > 5000 |  | 
6 | CC(=O)N1CCCC(=O)c2c(Cl)cccc2CCC1=O [I Cl H H H COCH3, 4-acetyl-9-chloro-1,2,4,5,6,7-hexahydro-4-benzazecine-3,8-dione] | > 5000 |  | 
